# Legend:
# Rattus norvegicus [1] = species on record: Rattus norvegicus; experiment: DrugMatrix - Regimen: Daily Repeat; format: toxicity, organism-based, Sprague-Dawley; parameters: regimen Daily Repeat, gender Male, age 6-8 weeks; settings: in vivo, po, 200 mg/kg, […], route oral GAVAGE, dose level High, time 14 day, vehicle .5 % CMC
# Rattus norvegicus [2] = species on record: Rattus norvegicus; format: toxicity, organism-based, Sprague-Dawley; settings: in vivo, po, 200 mg/kg, 24 h, route oral GAVAGE, dose level High, time 1 day, vehicle .5 % CMC
# Description: DrugMatrix - Regimen: Single
smiles,measurement,setting,value
CC(C)=C1CC[C@@H](C)CC1=O [PULEGONE],ABSOLUTE BASOPHIL,Rattus norvegicus [1]; tissue Blood,0 CELLS/uL
same,ABSOLUTE EOSINOPHIL,Rattus norvegicus [1]; tissue Blood,211.4 CELLS/uL
same,ABSOLUTE LYMPHOCYTE,Rattus norvegicus [1]; tissue Blood,21257.2 CELLS/uL
same,ABSOLUTE MONOCYTE,Rattus norvegicus [1]; tissue Blood,665.8 CELLS/uL
same,ABSOLUTE SEGMENTED NEUTROPHIL,Rattus norvegicus [1]; tissue Blood,3705.6 CELLS/uL
same,BASOPHIL,Rattus norvegicus [1]; tissue Blood,0%
same,EOSINOPHIL,Rattus norvegicus [1]; tissue Blood,0.8%
same,ERYTHROCYTE COUNT,Rattus norvegicus [1]; tissue Blood,6.34 x10E6/uL
same,HEMATOCRIT,Rattus norvegicus [1]; tissue Blood,37.3%
same,HEMOGLOBIN,Rattus norvegicus [1]; tissue Blood,13.88 G/DL
same,LEUKOCYTE COUNT,Rattus norvegicus [1]; tissue Blood,25.84 x10E3/uL
same,LYMPHOCYTE,Rattus norvegicus [1]; tissue Blood,82.2%
same,MEAN CORPUSCULAR HEMOGLOBIN,Rattus norvegicus [1]; tissue Blood,21.94 pg
same,MEAN CORPUSCULAR HEMOGLOBIN CONCENTRATION,Rattus norvegicus [1]; tissue Blood,37.2 G/DL
same,MEAN CORPUSCULAR VOLUME,Rattus norvegicus [1]; tissue Blood,58.94 fL
same,MONOCYTE,Rattus norvegicus [1]; tissue Blood,2.6%
same,NEUTROPHIL,Rattus norvegicus [1]; tissue Blood,14.4%
same,NUCLEATED RED BLOOD CELLS,Rattus norvegicus [1]; tissue Blood,0 /100WBC
same,PLATELET COUNT,Rattus norvegicus [1]; tissue Blood,1150.2 x10E3/uL
same,ALANINE AMINOTRANSFERASE,Rattus norvegicus [1]; tissue Plasma,78.8 u/L
same,ALBUMIN,Rattus norvegicus [1]; tissue Plasma,4.54 G/DL
same,ALKALINE PHOSPHATASE,Rattus norvegicus [1]; tissue Plasma,518 u/L
same,ASPARTATE AMINOTRANSFERASE,Rattus norvegicus [1]; tissue Plasma,93.8 u/L
same,BLOOD UREA NITROGEN,Rattus norvegicus [1]; tissue Plasma,14.2 mg/dL
same,CARBON DIOXIDE,Rattus norvegicus [1]; tissue Plasma,27.4 mmol/L
same,CHLORIDE,Rattus norvegicus [1]; tissue Plasma,102.2 MEQ/L
same,CHOLESTEROL,Rattus norvegicus [1]; tissue Plasma,65 mg/dL
same,CREATININE,Rattus norvegicus [1]; tissue Plasma,0.18 mg/dL
same,GLUCOSE,Rattus norvegicus [1]; tissue Plasma,128.2 mg/dL
same,LACTATE DEHYDROGENASE,Rattus norvegicus [1]; tissue Plasma,147 u/L
same,LIPASE,Rattus norvegicus [1]; tissue Plasma,11 u/L
same,PHOSPHORUS,Rattus norvegicus [1]; tissue Plasma,12.52 mg/dL
same,POTASSIUM,Rattus norvegicus [1]; tissue Plasma,7 MEQ/L
same,SODIUM,Rattus norvegicus [1]; tissue Plasma,148.6 MEQ/L
same,TOTAL BILIRUBIN,Rattus norvegicus [1]; tissue Plasma,0.32 mg/dL
same,TOTAL PROTEIN,Rattus norvegicus [1]; tissue Plasma,6.52 G/DL
same,URIC ACID,Rattus norvegicus [1]; tissue Plasma,2.08 mg/dL
same,ABSOLUTE EOSINOPHIL,Rattus norvegicus [2]; tissue Blood,46 CELLS/uL
same,ABSOLUTE LYMPHOCYTE,Rattus norvegicus [2]; tissue Blood,13023.67 CELLS/uL
same,ABSOLUTE MONOCYTE,Rattus norvegicus [2]; tissue Blood,245.33 CELLS/uL
same,ABSOLUTE SEGMENTED NEUTROPHIL,Rattus norvegicus [2]; tissue Blood,1251.67 CELLS/uL
same,BASOPHIL,Rattus norvegicus [2]; tissue Blood,0%
same,EOSINOPHIL,Rattus norvegicus [2]; tissue Blood,0.33%
same,ERYTHROCYTE COUNT,Rattus norvegicus [2]; tissue Blood,5.98 x10E6/uL
same,HEMATOCRIT,Rattus norvegicus [2]; tissue Blood,37.73%
same,HEMOGLOBIN,Rattus norvegicus [2]; tissue Blood,13.9 G/DL
same,LEUKOCYTE COUNT,Rattus norvegicus [2]; tissue Blood,14.57 x10E3/uL
same,LYMPHOCYTE,Rattus norvegicus [2]; tissue Blood,90%
same,MEAN CORPUSCULAR HEMOGLOBIN,Rattus norvegicus [2]; tissue Blood,23.43 pg
same,MEAN CORPUSCULAR HEMOGLOBIN CONCENTRATION,Rattus norvegicus [2]; tissue Blood,37 G/DL
same,MEAN CORPUSCULAR VOLUME,Rattus norvegicus [2]; tissue Blood,63.4 fL
same,MONOCYTE,Rattus norvegicus [2]; tissue Blood,1.67%
same,NEUTROPHIL,Rattus norvegicus [2]; tissue Blood,8%
same,NUCLEATED RED BLOOD CELLS,Rattus norvegicus [2]; tissue Blood,0 /100WBC
same,PLATELET COUNT,Rattus norvegicus [2]; tissue Blood,961.67 x10E3/uL
same,ALANINE AMINOTRANSFERASE,Rattus norvegicus [2]; tissue Plasma,52.67 u/L
same,ALBUMIN,Rattus norvegicus [2]; tissue Plasma,4.3 G/DL
same,ALKALINE PHOSPHATASE,Rattus norvegicus [2]; tissue Plasma,476.33 u/L
same,ASPARTATE AMINOTRANSFERASE,Rattus norvegicus [2]; tissue Plasma,110 u/L
same,BLOOD UREA NITROGEN,Rattus norvegicus [2]; tissue Plasma,12.33 mg/dL
same,CARBON DIOXIDE,Rattus norvegicus [2]; tissue Plasma,23.67 mmol/L
same,CHLORIDE,Rattus norvegicus [2]; tissue Plasma,103.5 MEQ/L
same,CHOLESTEROL,Rattus norvegicus [2]; tissue Plasma,77.67 mg/dL
same,CREATININE,Rattus norvegicus [2]; tissue Plasma,0.14 mg/dL
same,GLUCOSE,Rattus norvegicus [2]; tissue Plasma,133.33 mg/dL
same,LACTATE DEHYDROGENASE,Rattus norvegicus [2]; tissue Plasma,244 u/L
same,LIPASE,Rattus norvegicus [2]; tissue Plasma,10 u/L
same,PHOSPHORUS,Rattus norvegicus [2]; tissue Plasma,12.8 mg/dL
same,POTASSIUM,Rattus norvegicus [2]; tissue Plasma,6.49 MEQ/L
same,SODIUM,Rattus norvegicus [2]; tissue Plasma,142.65 MEQ/L
same,TOTAL BILIRUBIN,Rattus norvegicus [2]; tissue Plasma,0.23 mg/dL
same,TOTAL PROTEIN,Rattus norvegicus [2]; tissue Plasma,6 G/DL
same,URIC ACID,Rattus norvegicus [2]; tissue Plasma,1.8 mg/dL

# Reference: ChEMBL document CHEMBL3885881, “DrugMatrix”
